Our source for the IC50 values is patent publication US11780893B2, “Kv1.3 blockers” (Zealand Pharma A/S, priority 2019, dated 2023).

Usually IC50 stands for the concentration that gives 50% inhibition.

Bridge positions count the residues as written; N and C are the ends. Square brackets hold non-standard residues; d marks the D form. Peptide text beside a SMILES is read from it. Nle = CCCC[C@H](N)C(=O)O

In the experiment the target is T1, human Kv1.3 voltage-gated K+ channel (Homo sapiens, UniProt P22001).
T1 construct: host or cells: CHO-DUKX
T1 sequence (P22001 whole entry): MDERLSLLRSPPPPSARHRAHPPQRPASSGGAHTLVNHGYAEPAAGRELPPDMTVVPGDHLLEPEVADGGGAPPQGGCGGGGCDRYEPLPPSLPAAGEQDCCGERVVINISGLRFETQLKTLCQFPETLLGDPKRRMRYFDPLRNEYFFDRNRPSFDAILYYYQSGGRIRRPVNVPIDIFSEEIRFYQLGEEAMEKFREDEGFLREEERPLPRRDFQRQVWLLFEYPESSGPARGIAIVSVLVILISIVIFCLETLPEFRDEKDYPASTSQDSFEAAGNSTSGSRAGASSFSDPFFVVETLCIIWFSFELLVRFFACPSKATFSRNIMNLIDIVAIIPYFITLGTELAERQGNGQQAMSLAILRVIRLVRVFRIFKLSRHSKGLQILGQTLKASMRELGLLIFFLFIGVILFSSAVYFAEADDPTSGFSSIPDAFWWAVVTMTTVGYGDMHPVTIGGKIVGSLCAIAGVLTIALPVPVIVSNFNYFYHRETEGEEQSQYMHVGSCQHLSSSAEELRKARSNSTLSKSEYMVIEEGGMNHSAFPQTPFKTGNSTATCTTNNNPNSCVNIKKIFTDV
Put plainly: cell-based. Conditions: inhibition of thallium flux, CHO-DUKX cells with human Kv1.3; read-out: IC50.
`CCCC[C@@H]1NC(=O)[C@@H]2CSSC[C@H](NC(C)=O)C(=O)N[C@@H](CO)C(=O)N[C@@H](C)C(=O)N[C@@H](CO)C(=O)N[C@@H](C(C)C)C(=O)N[C@@H](CCC(=O)O)C(=O)N[C@H]3CSSC[C@H](NC(=O)[C@H](CCCCN)NC(=O)[C@H](CCCCN)NC(=O)[C@H](CC(N)=O)NC1=O)C(=O)N[C@@H](CCCCN)C(=O)N[C@H](C(=O)N[C@@H](Cc1ccc(O)cc1)C(=O)NCC(N)=O)CSSC[C@H](NC(=O)[C@H](CCCCN)NC(=O)[C@H](CCC(N)=O)NC(=O)[C@H](CCCCN)NC3=O)C(=O)N[C@@H](CC(C)C)C(=O)N[C@@H](CCCCN)C(=O)N[C@@H](C)C(=O)N[C@@H]([C@@H](C)CC)C(=O)NCC(=O)N[C@@H](CO)C(=O)N[C@@H]([C@@H](C)CC)C(=O)N[C@@H](Cc1ccccc1)C(=O)NCC(=O)N[C@@H](CCCCN)C(=O)N2` [Compound 111] (Ac-CSASVECKQKCLKAIGSIFGKC[Nle]NKKCKCYG-NH2; disulfide 1-22, 7-27, 11-29): the half-maximal inhibitory concentration (IC50) was found to be 2.1 nM.

Consider `CCCC[C@@H]1NC(=O)[C@@H]2CSSC[C@H](NC(C)=O)C(=O)N[C@@H](CO)C(=O)N[C@@H](C)C(=O)N[C@@H](CO)C(=O)N[C@@H](C(C)C)C(=O)N[C@@H](CCC(=O)O)C(=O)N[C@H]3CSSC[C@H](NC(=O)[C@H](CCCCN)NC(=O)[C@H](CCCCN)NC(=O)[C@H](CC(N)=O)NC1=O)C(=O)N[C@@H](CCCCN)C(=O)N[C@H](C(=O)N[C@@H](Cc1ccc(O)cc1)C(=O)N[C@@H](CO)C(N)=O)CSSC[C@H](NC(=O)[C@H](CCCCN)NC(=O)[C@H](CCC(N)=O)NC(=O)[C@H](CCCCN)NC3=O)C(=O)N[C@@H](CC(C)C)C(=O)N[C@@H](CCCCN)C(=O)N[C@@H](C)C(=O)N[C@@H]([C@@H](C)CC)C(=O)NCC(=O)N[C@@H](CO)C(=O)N[C@@H]([C@@H](C)CC)C(=O)N[C@@H](Cc1ccccc1)C(=O)NCC(=O)N[C@@H](CCCCN)C(=O)N2` [Compound 110] (Ac-CSASVECKQKCLKAIGSIFGKC[Nle]NKKCKCYS-NH2; disulfide 1-22, 7-27, 11-29), for which the IC50 is 2.3 nM. As for `CC[C@H](C)[C@@H]1NC(=O)[C@H](CO)NC(=O)CNC(=O)[C@H](C)NC(=O)[C@H](CCCCN)NC(=O)[C@H](CC(C)C)NC(=O)[C@@H]2CSSC[C@@H](C(=O)N[C@@H](Cc3ccc(O)cc3)C(=O)N3CCC[C@H]3C(=O)N[C@@H](CCCNC(=N)N)C(N)=O)NC(=O)[C@H](CCCCN)NC(=O)[C@@H]3CSSC[C@H](NC(=O)[C@H](CCC(=O)O)NC(=O)[C@H](C(C)C)NC(=O)[C@H](CO)NC(=O)[C@H](C)NC(=O)[C@H](CO)NC(=O)[C@@H](NC(=O)[C@H](CCCNC(=N)N)NC(=O)[C@H](CCSC)NC(=O)[C@H](CC(=O)O)NC(=O)[C@H](CCSC)NC(=O)[C@@H](N)CC(N)=O)CSSC[C@H](NC(=O)[C@H](CCCCN)NC(=O)CNC(=O)[C@H](Cc4ccccc4)NC1=O)C(=O)N[C@@H](CCSC)C(=O)N[C@@H](CC(N)=O)C(=O)N[C@@H](CCCCN)C(=O)N[C@@H](CCCCN)C(=O)N3)C(=O)N[C@@H](CCCCN)C(=O)N[C@@H](CCC(N)=O)C(=O)N[C@@H](CCCCN)C(=O)N2` [Compound 61] (H-NMDMRCSASVECKQKCLKAGSIFGKCMNKKCKCYPR-NH2; disulfide 6-26, 12-31, 16-33), the figure is 0.4 nM; as for `CCCC[C@@H]1NC(=O)[C@@H]2CSSC[C@H](NC(=O)[C@H](CCCNC(=N)N)NC(=O)[C@H](CCCC)NC(=O)[C@H](CCC(=O)O)NC(=O)[C@H](CCCC)NC(=O)[C@H]3CCCN3)C(=O)N[C@@H](CO)C(=O)N[C@@H](C)C(=O)N[C@@H](CO)C(=O)N[C@@H](C(C)C)C(=O)N[C@@H](CCC(=O)O)C(=O)N[C@H]3CSSC[C@H](NC(=O)[C@H](CCCCN)NC(=O)[C@H](CCCCN)NC(=O)[C@H](CC(N)=O)NC1=O)C(=O)N[C@@H](CCCCN)C(=O)N[C@H](C(=O)N[C@@H](Cc1ccc(O)cc1)C(=O)N1CCC[C@H]1C(=O)N[C@@H](CCCNC(=N)N)C(=O)O)CSSC[C@H](NC(=O)[C@H](CCCCN)NC(=O)[C@H](CCC(N)=O)NC(=O)[C@H](CCCCN)NC3=O)C(=O)N[C@@H](CC(C)C)C(=O)N[C@@H](C)C(=O)N[C@@H](C)C(=O)N[C@@H]([C@@H](C)CC)C(=O)NCC(=O)N[C@@H](CO)C(=O)N[C@@H]([C@@H](C)CC)C(=O)N[C@@H](Cc1ccccc1)C(=O)NCC(=O)N[C@@H](CCCCN)C(=O)N2` [Compound 119] (H-[dP][Nle]E[Nle]RCSASVECKQKCLAAIGSIFGKC[Nle]NKKCKCYPR-OH; disulfide 6-27, 12-32, 16-34), 0.63 nM; as for `CC[C@H](C)[C@@H]1NC(=O)[C@H](C)NC(=O)[C@H](CCCCN)NC(=O)[C@H](CC(C)C)NC(=O)[C@@H]2CSSC[C@@H](C(=O)N[C@@H](Cc3ccc(O)cc3)C(=O)N3CCC[C@H]3C(=O)N[C@@H](CCCNC(=N)N)C(=O)O)NC(=O)[C@H](CCCCN)NC(=O)[C@@H]3CSSC[C@H](NC(=O)[C@H](CCC(=O)O)NC(=O)[C@H](C(C)C)NC(=O)[C@H](CO)NC(=O)[C@H](C)NC(=O)[C@H](CO)NC(=O)[C@@H](NC(=O)[C@H](CCCNC(=N)N)NC(=O)[C@H](CCSC)NC(=O)[C@H](CC(=O)O)NC(=O)[C@H](CCSC)NC(=O)[C@H](CC(N)=O)NC(=O)CNC(=O)CN)CSSC[C@H](NC(=O)[C@H](CCCCN)NC(=O)CNC(=O)[C@H](Cc4ccccc4)NC(=O)[C@H]([C@@H](C)CC)NC(=O)[C@H](CO)NC(=O)CNC1=O)C(=O)N[C@@H](CCSC)C(=O)N[C@@H](CC(N)=O)C(=O)N[C@@H](CCCCN)C(=O)N[C@@H](CCCCN)C(=O)N3)C(=O)N[C@@H](CCCCN)C(=O)N[C@@H](CCC(N)=O)C(=O)N[C@@H](CCCCN)C(=O)N2` [Compound 11] (H-GGNMDMRCSASVECKQKCLKAIGSIFGKCMNKKCKCYPR-OH; disulfide 8-29, 14-34, 18-36), 0.3 nM. As for `CCCC[C@H](NC(=O)[C@H](CC(=O)O)NC(=O)[C@H](CCSC)NC(=O)[C@@H](N)CC(N)=O)C(=O)N[C@@H](CCCNC(=N)N)C(=O)N[C@H]1CSSC[C@@H]2NC(=O)[C@H](CCCCN)NC(=O)CNC(=O)[C@H](Cc3ccccc3)NC(=O)[C@H]([C@@H](C)CC)NC(=O)[C@H](CO)NC(=O)CNC(=O)[C@H]([C@@H](C)CC)NC(=O)[C@H](C)NC(=O)[C@H](CCCCN)NC(=O)[C@H](CC(C)C)NC(=O)[C@@H]3CSSC[C@@H](C(=O)N[C@@H](Cc4ccc(O)cc4)C(=O)N4CCC[C@H]4C(=O)N[C@@H](CCCNC(=N)N)C(N)=O)NC(=O)[C@H](CCCCN)NC(=O)[C@H](CSSC[C@H](NC(=O)[C@H](CCC(=O)O)NC(=O)[C@H](C(C)C)NC(=O)[C@H](CO)NC(=O)[C@H](C)NC(=O)[C@H](CO)NC1=O)C(=O)N[C@@H](CCCCN)C(=O)N[C@@H](CCC(N)=O)C(=O)N[C@@H](CCCCN)C(=O)N3)NC(=O)[C@H](CCCCN)NC(=O)[C@H](CCCCN)NC(=O)[C@H](CC(N)=O)NC(=O)[C@H](CCSC)NC2=O` [Compound 15] (H-NMD[Nle]RCSASVECKQKCLKAIGSIFGKCMNKKCKCYPR-NH2; disulfide 6-27, 12-32, 16-34), the figure is 0.12 nM. With `CCCC[C@H](NC(=O)[C@H](CC(=O)O)NC(=O)[C@H](CCCC)NC(=O)[C@@H](N)CO)C(=O)N[C@@H](CCCNC(=N)N)C(=O)N[C@H]1CSSC[C@@H]2NC(=O)[C@H](CCCCN)NC(=O)CNC(=O)[C@H](Cc3ccccc3)NC(=O)[C@H]([C@@H](C)CC)NC(=O)[C@H](CO)NC(=O)CNC(=O)[C@H]([C@@H](C)CC)NC(=O)[C@H](C)NC(=O)[C@H](CCCCN)NC(=O)[C@H](CC(C)C)NC(=O)[C@@H]3CSSC[C@@H](C(=O)N[C@@H](Cc4ccc(O)cc4)C(=O)N4CCC[C@H]4C(=O)N[C@@H](CCCNC(=N)N)C(N)=O)NC(=O)[C@H](CCCCN)NC(=O)[C@H](CSSC[C@H](NC(=O)[C@H](CCC(=O)O)NC(=O)[C@H](C(C)C)NC(=O)[C@H](C(C)C)NC(=O)[C@H](C)NC(=O)[C@H](CO)NC1=O)C(=O)N[C@@H](CCCCN)C(=O)N[C@@H](CCC(N)=O)C(=O)N[C@@H](CCCCN)C(=O)N3)NC(=O)[C@H](CCCCN)NC(=O)[C@H](CCCCN)NC(=O)[C@H](CC(N)=O)NC(=O)[C@H](CCSC)NC2=O` [Compound 90] (H-S[Nle]D[Nle]RCSAVVECKQKCLKAIGSIFGKCMNKKCKCYPR-NH2; disulfide 6-27, 12-32, 16-34), the IC50 worked out at 0.19 nM.

For the molecule `CCCC[C@H](NC(=O)[C@H](CC(=O)O)NC(=O)[C@H](CCCC)NC(=O)[C@@H](N)CO)C(=O)N[C@@H](CCCNC(=N)N)C(=O)N[C@H]1CSSC[C@@H]2NC(=O)[C@H](CCCCN)NC(=O)CNC(=O)[C@H](Cc3ccccc3)NC(=O)[C@H]([C@@H](C)CC)NC(=O)[C@H](CO)NC(=O)CNC(=O)[C@H]([C@@H](C)CC)NC(=O)[C@H](C)NC(=O)[C@H](C)NC(=O)[C@H](CC(C)C)NC(=O)[C@@H]3CSSC[C@@H](C(=O)N[C@@H](Cc4ccc(O)cc4)C(=O)N4CCC[C@H]4C(=O)N[C@@H](CCCNC(=N)N)C(N)=O)NC(=O)[C@H](CCCCN)NC(=O)[C@H](CSSC[C@H](NC(=O)[C@H](CCC(=O)O)NC(=O)[C@H](C(C)C)NC(=O)[C@H](CO)NC(=O)[C@H](C)NC(=O)[C@H](CO)NC1=O)C(=O)N[C@@H](C)C(=O)N[C@@H](CCC(N)=O)C(=O)N[C@@H](CC(C)C)C(=O)N3)NC(=O)[C@H](CCCCN)NC(=O)[C@H](CCCCN)NC(=O)[C@H](CC(N)=O)NC(=O)[C@H](CCSC)NC2=O` [Compound 81] (H-S[Nle]D[Nle]RCSASVECAQLCLAAIGSIFGKCMNKKCKCYPR-NH2; disulfide 6-27, 12-32, 16-34), the IC50 turned out to be 0.22 nM. On to `CC[C@H](C)[C@@H]1NC(=O)[C@H](C)NC(=O)[C@H](CCCCN)NC(=O)[C@H](CC(C)C)NC(=O)[C@@H]2CSSC[C@@H](C(=O)N[C@@H](Cc3ccc(O)cc3)C(=O)N3CCC[C@H]3C(=O)N[C@@H](CCCNC(=N)N)C(=O)O)NC(=O)[C@H](CCCCN)NC(=O)[C@@H]3CSSC[C@H](NC(=O)[C@H](CCC(=O)O)NC(=O)[C@H](C(C)C)NC(=O)[C@H](CO)NC(=O)[C@H](C)NC(=O)[C@H](CO)NC(=O)[C@@H](NC(=O)[C@H](CCCNC(=N)N)NC(=O)[C@H](CCSC)NC(=O)[C@@H](N)CC(=O)O)CSSC[C@H](NC(=O)[C@H](CCCCN)NC(=O)CNC(=O)[C@H](Cc4ccccc4)NC(=O)[C@H]([C@@H](C)CC)NC(=O)[C@H](CO)NC(=O)CNC1=O)C(=O)N[C@@H](CCSC)C(=O)N[C@@H](CC(N)=O)C(=O)N[C@@H](CCCCN)C(=O)N[C@@H](CCCCN)C(=O)N3)C(=O)N[C@@H](CCCCN)C(=O)N[C@@H](CCC(N)=O)C(=O)N[C@@H](CCCCN)C(=O)N2` [Compound 6] (H-DMRCSASVECKQKCLKAIGSIFGKCMNKKCKCYPR-OH; disulfide 4-25, 10-30, 14-32), for which the IC50 amounted to 0.34 nM.
